Results on twelve molecules are retold here after patent US20060276528A1, “Novel benzo-fused heteroaryl sulfamide derivatives useful as anticonvulsant agents” (priority 2004, published 2006).

Experiment [1] concerns MES-induced seizure (full body tonic extension). In words: Maximal Electroshock Test (MES), anticonvulsant activity. It counts as in vivo, CF-1 male albino mice. To be noted: oral; for MES @100 mpk: (number of mice with full body tonic extension prevented)/(total number of mice tested) / MES @100 mpk, result in words: 100 mg/kg; for MES @100 mpk, result in words: mice, time not given; for MES @ 300 mpk: (number of mice with full body tonic extension prevented)/(total number of mice tested): 300 mg/kg. The procedure: Anticonvulsant activity was determined using the MES test, run according to the procedure described in detail below. Swinyard E A, Woodhead J H, White H S, Franklin M R. Experimental selection, quantification, and evaluation of anticonvulsants. In Levy R H, et al., eds. Antiepileptic Drugs. 3rd ed. New York: Raven Press, 1989:85-102 CF-1 male albino mice (25-35 g) were fasted for 16 hours before testing. Mice were randomly selected into control and test groups, with the animals dosed with vehicle or test compound, at varying concentrations, respectively. On the study date, at 30 minutes prior to shock, the mice were orally dosed with vehicle (0.5% methylcellulose) or test compound (100-300 mg/kg). Seizures were induced by trans-corneal electric shock using a 60-Hz alternating current, 50 mA, delivered for 0.2 sec. The mice in the test groups were subjected to electrical stimulus at time intervals between 15 minutes and 4 hours following administration of test compound. […] The test was complete when the entire course of the convulsion has been observed (typically, less than 1 minute after electrical stimulation), and the mice were then immediately euthanized by carbon dioxide inhalation. Abolition of the full body tonic extensor component of the seizure was taken as the endpoint of the test. […] The ED50 value of the test compound (calculated when appropriate) was the calculated dose required to block the hind limb tonic-extensor component of the MES-induced seizure in 50% of the rodents tested. A probit analysis was used to calculate the ED50 and 95% fiducial limits (FL). Representative compounds of the present invention were tested according to the procedure described above, with results as listed in Table 6 below. Results are listed as (number of mice with full body tonic extension prevented)/(total number of mice tested) (@ a given time).
A general note: Protection in the maximal electroshock model is a classic sign of anticonvulsant action.

For experiment [2], the system named is carbonic anhydrase. Particulars: background statement, figure not given; cited from earlier work.

`NS(=O)(=O)NCc1csc2ccccc12` [Compound 1, N-(benzo[b]thien-3-ylmethyl)-sulfamide]: the entries for the “MES @100 mpk: (number of mice with full body tonic extension prevented)/(total number of mice tested)” value in experiment [1] (0.5 h after dosing), in experiment [1] (2 h after dosing) and in experiment [1] (4 h after dosing) were 1/5 (0.5 h), 3/5 (2 h) and 2/5 (4 h), respectively.

Regarding `NS(=O)(=O)NCc1csc2ccc(Cl)cc12` [Compound 3, N-[(5-chlorobenzo[b]thien-3-yl)methyl]-sulfamide], the “MES @100 mpk, result in words” value in experiment [1] was “inactive”. The “MES @ 300 mpk: (number of mice with full body tonic extension prevented)/(total number of mice tested)” value (“MES @ 300 mpk” for short) in experiment [1] (0.5 hr after dosing) is reported as 0/5 (0.5 hr); in experiment [1] (2 hr after dosing), 3/5 (2 hr); in experiment [1] (4 hr after dosing), 1/5 (4 hr).

`NS(=O)(=O)NCc1coc2ccccc12` [Compound 6, N-(3-benzofuranylmethyl)-sulfamide]: the “MES @100 mpk, result in words” value in experiment [1] is “inactive”. Moreover, the “MES @ 300 mpk” value in experiment [1] (0.5 hr after dosing) was 5/5 (0.5 hr); in experiment [1] (2 hr after dosing), 0/5 (2 hr); in experiment [1] (4 hr after dosing) it was 0/5 (4 hr).

Take `Cn1cc(CNS(N)(=O)=O)c2ccccc21` [Compound 7, N-[(1-methyl-1H-indol-3-yl)methyl]-sulfamide]: in experiment [1], the “MES @100 mpk, result in words” value was “inactive”. Further, the “MES @ 300 mpk” value in experiment [1] (0.5 hr after dosing) is 5/5 (0.5 hr); in experiment [1] (2 hr after dosing), 0/5 (2 hr); in experiment [1] (4 hr after dosing) it was 0/5 (4 hr).

For `NS(=O)(=O)NCc1csc2ccc(F)cc12` [Compound 8, N-[(5-fluorobenzo[b]thien-3-yl)methyl]-sulfamide], the “MES @100 mpk: (number of mice with full body tonic extension prevented)/(total number of mice tested)” value is given as 0/5 (0.5 h) in experiment [1] (0.5 h after dosing), 4/5 (2 h) in experiment [1] (2 h after dosing) and 1/5 (4 h) in experiment [1] (4 h after dosing).

Take `CC(NS(N)(=O)=O)c1csc2ccccc12` (stereo not shown) [Compound 9, N-(1-benzo[b]thien-3-ylethyl)-sulfamide]: the entries for the “MES @100 mpk: (number of mice with full body tonic extension prevented)/(total number of mice tested)” value in experiment [1] (0.5 h after dosing), in experiment [1] (2 h after dosing) and in experiment [1] (4 h after dosing) were 1/5 (0.5 h), 0/5 (2 h) and 0/5 (4 h), respectively.

For the molecule `NS(=O)(=O)NCc1cccc2ccccc12` [Compound 10, N-(1-naphthalenylmethyl)-sulfamide], the “MES @100 mpk: (number of mice with full body tonic extension prevented)/(total number of mice tested)” value is on record as 2/5 (0.5 h) in experiment [1] (0.5 h after dosing), 1/5 (2 h) in experiment [1] (2 h after dosing) and 0/5 (4 h) in experiment [1] (4 h after dosing).

With `Cc1oc2ccccc2c1CNS(N)(=O)=O` [Compound 13], the “MES @100 mpk: (number of mice with full body tonic extension prevented)/(total number of mice tested)” value in experiment [1] (0.5 h after dosing) was 4/5 (0.5 h); in experiment [1] (2 h after dosing), 0/5 (2 h); in experiment [1] (4 h after dosing), 0/5 (4 h).

As for `NS(=O)(=O)NCc1csc2ccc(Br)cc12` [Compound 15, N-[(5-bromobenzo[b]thien-3-yl)methyl]-sulfamide], the results for the “MES @ 300 mpk” value in experiment [1] (0.5 hr after dosing), in experiment [1] (2 hr after dosing) and in experiment [1] (4 hr after dosing) were 0/3 (0.5 hr), 0/3 (2 hr) and 1/3 (4 hr), respectively.

`NS(=O)(=O)NCc1csc2cccc(Br)c12` [Compound 17, N-[(4-bromobenzo[b]thien-3-yl)methyl]-sulfamide]: the “MES @ 300 mpk” value is 0/3 (0.5 hr) in experiment [1] (0.5 hr after dosing), 0/3 (2 hr) in experiment [1] (2 hr after dosing) and 1/3 (4 hr) in experiment [1] (4 hr after dosing).

With `NS(=O)(=O)NCc1csc2c(F)cccc12` [Compound 18, N-[(7-fluorobenzo[b]thien-3-yl)methyl]-sulfamide], the entries for the “MES @ 300 mpk” value in experiment [1] (0.5 hr after dosing), in experiment [1] (2 hr after dosing) and in experiment [1] (4 hr after dosing) were 0/3 (0.5 hr), 2/3 (2 hr) and 0/3 (4 hr), respectively.

For the molecule `CC1(C)O[C@@H]2[C@@H](CO[C@@]3(COS(N)(=O)=O)OC(C)(C)O[C@@H]23)O1` [Topiramate], the carbonic anhydrase inhibition result in experiment [2] was “single digit micromolar”.
